Some test systems named below: SF-268 CNS; MOLT-4 leukemia; SF-295 CNS; HOP-92 NSCLC; RPMI-8226 leukemia; M14 melanoma; NCI-H460 lung; SK-OV-3 ovarian; NCI-H226 lung; SF-539 CNS.
What all share (assay): DTP human tumour cell line panel, 48 h

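Briefly, cells in 96-well plates were exposed to five compound concentrations for 48 h, and endpoints were estimated by linear interpolation. At the GI50, growth is halved. Definition used: TGI = concentration required for complete inhibition of growth.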 Some results are limits rather than exact numbers.

The text below walks through data of PubChem BioAssay (NCI).

As usually defined, the GI50 is the concentration giving 50% growth inhibition. By TGI is commonly meant the concentration giving total growth inhibition. Low readings indicate greater sensitivity of the cells, high ones lower sensitivity of the cells.

As for `CCOC(=O)C#Cc1c(CC(=O)OCC)nnn1[C@H]1O[C@@H](CO)[C@@H]2OC(C)(C)O[C@@H]21`, the GI50 with SF-268 CNS was 16.3 µM; in the test on MOLT-4 leukemia it was 2.79 µM; in the test on SF-295 CNS it was 43.6 µM; with HOP-92 NSCLC it was 3 µM; in the test on RPMI-8226 leukemia, 3.45 µM; with M14 melanoma, 3.58 µM. In addition, the GI50 in the test on NCI-H460 lung is 15 µM; with SK-OV-3 ovarian, 37.3 µM; with NCI-H226 lung it was 1.79 µM. Also, the TGI with SF-268 CNS was 34.6 µM; in the test with MOLT-4 leukemia, 7.73 µM; in the test on SF-295 CNS, greater than 100 µM; with HOP-92 NSCLC, 6.94 µM; in the test with RPMI-8226 leukemia it was 9.06 µM; in the test on M14 melanoma, 12.8 µM. For the same compound, the values for the TGI in the test on NCI-H460 lung, in the test on SK-OV-3 ovarian and with NCI-H226 lung were 33.2 µM, greater than 100 µM and 3.26 µM, respectively.
Regarding `Cc1cccc2c1C(=O)OC2(C)c1cccc2ccccc12` (stereo unspecified), the total growth inhibition concentration (TGI) in the test on SF-268 CNS is greater than 100 µM; in the test with MOLT-4 leukemia, 88.8 µM; in the test with SF-295 CNS it was greater than 100 µM; in the test with HOP-92 NSCLC, 61.4 µM; in the test with RPMI-8226 leukemia, greater than 100 µM; with M14 melanoma, 40.7 µM. In addition, the TGI in the test on NCI-H460 lung was greater than 100 µM; in the test with NCI-H226 lung, 57.2 µM.
As to `COc1ccccc1/C=N/N=C(\N)NO`, the total growth inhibition concentration (TGI) is greater than 100 µM with SF-268 CNS; greater than 100 µM with MOLT-4 leukemia; 12.3 µM with SF-295 CNS; 65.6 µM in the test with HOP-92 NSCLC; greater than 100 µM with RPMI-8226 leukemia; greater than 100 µM in the test with NCI-H460 lung. Also, the results for the TGI in the test with SK-OV-3 ovarian, in the test with SF-539 CNS and in the test with NCI-H226 lung were greater than 100 µM, 9.4 µM and 90.7 µM, respectively.
On to `Clc1nc(Cl)c(Cc2ccccc2)c(Cl)n1`, for which the TGI with SF-268 CNS is 57.7 µM; in the test with MOLT-4 leukemia, greater than 100 µM; in the test on SF-295 CNS it was 32 µM; with RPMI-8226 leukemia, greater than 100 µM; in the test on M14 melanoma, 8.38 µM; in the test on SK-OV-3 ovarian, 28.9 µM. Further, the results for the TGI in the test with SF-539 CNS and in the test with NCI-H226 lung were 20 µM and 32.4 µM, respectively.
As for `CC(C)CCc1c(Cl)nc(Cl)nc1Cl`, the TGI in the test on SF-268 CNS was greater than 100 µM; in the test with MOLT-4 leukemia, greater than 100 µM; in the test on SF-295 CNS it was 34.4 µM; in the test on RPMI-8226 leukemia it was greater than 100 µM; with M14 melanoma, 15.3 µM; in the test with NCI-H460 lung, 39.7 µM. In addition, the results for the TGI in the test with SK-OV-3 ovarian, in the test with SF-539 CNS and in the test with NCI-H226 lung were 37.6 µM, 56.5 µM and 14.6 µM, respectively.
Turning to `O=C1CCCC1NC(=O)C(F)(F)F` (stereo unspecified), the TGI with SF-268 CNS, with MOLT-4 leukemia, in the test on SF-295 CNS, in the test on HOP-92 NSCLC, with M14 melanoma and with NCI-H460 lung was greater than 100 µM throughout. For the same compound, the total growth inhibition concentration (TGI) in the test on SK-OV-3 ovarian, in the test with SF-539 CNS and with NCI-H226 lung was greater than 100 µM throughout.
For `CCCCCCCCCCCC[n+]1ccc(C(N)=O)cc1`, the GI50 is 2.78 µM with SF-268 CNS; 3.29 µM with MOLT-4 leukemia; 2.8 µM with SF-295 CNS; 1.34 µM in the test with RPMI-8226 leukemia; 2.58 µM with M14 melanoma; 3.81 µM in the test with NCI-H460 lung. Also, the GI50 in the test on SK-OV-3 ovarian was 4.18 µM; in the test with SF-539 CNS, 2.36 µM; with NCI-H226 lung it was 3.43 µM. In addition, the TGI in the test on SF-268 CNS is 11.5 µM; in the test with MOLT-4 leukemia it was greater than 100 µM; in the test with SF-295 CNS it was 11.6 µM; with RPMI-8226 leukemia, 4.86 µM; in the test on M14 melanoma, 9.7 µM; in the test with NCI-H460 lung, 14.1 µM. The TGI in the test with SK-OV-3 ovarian was found to be 15.2 µM; in the test with SF-539 CNS, 6.31 µM; with NCI-H226 lung it was 16.3 µM.
On to `Cn1c(=O)c(C(=O)NC(=O)OCc2ccccc2)cn(CCSCCOC(=O)NCCCCCCNC(=O)OCCSCCn2cc(C(=O)NC(=O)OCc3ccccc3)c(=O)n(C)c2=O)c1=O`, for which the TGI in the test with SF-268 CNS is greater than 100 µM; in the test with MOLT-4 leukemia, greater than 100 µM; in the test with HOP-92 NSCLC it was 87.5 µM; in the test with RPMI-8226 leukemia it was greater than 100 µM; in the test with M14 melanoma, greater than 100 µM; in the test on NCI-H460 lung it was greater than 100 µM. Besides, the TGI in the test with SF-539 CNS and in the test with NCI-H226 lung was greater than 100 µM each time.
With `C/C(=N\O)C(CN1CCCCC1)C(c1ccccc1)c1c(O)c2ccccc2oc1=O` (stereo unspecified), the TGI in the test with SF-268 CNS, in the test with SF-295 CNS, in the test on HOP-92 NSCLC, in the test with RPMI-8226 leukemia, with M14 melanoma and with SK-OV-3 ovarian was greater than 100 µM each time. For the same compound, the total growth inhibition concentration (TGI) in the test with SF-539 CNS and with NCI-H226 lung was greater than 100 µM in each case.
As to `C[CH2][Sn]([CH2]C)([O]C(=O)c1cccc(F)c1)[O][Sn]([CH2]C)([CH2]C)[O]C(=O)c1cccc(F)c1`, the GI50 is 17.9 µM with SF-268 CNS; 31.9 µM in the test with MOLT-4 leukemia; 18.7 µM with SF-295 CNS; 16.5 µM in the test on HOP-92 NSCLC; 16.9 µM with M14 melanoma; 33.8 µM with NCI-H460 lung. Further, the GI50 with SK-OV-3 ovarian is greater than 100 µM; with SF-539 CNS, 17 µM; in the test on NCI-H226 lung it was 18.8 µM. Further, the TGI is 32.9 µM in the test on SF-268 CNS; greater than 100 µM in the test on MOLT-4 leukemia; 36.9 µM in the test with SF-295 CNS; 30.1 µM with HOP-92 NSCLC; 31.3 µM in the test on M14 melanoma; greater than 100 µM in the test with NCI-H460 lung. Moreover, the TGI with SK-OV-3 ovarian was greater than 100 µM; in the test with SF-539 CNS, 30.9 µM; with NCI-H226 lung it was 33.8 µM.
With `C=CCN=C1NC(=O)C(CC(=O)Nc2ccc(C)cc2)S1` (stereo unspecified), the TGI in the test on SF-268 CNS, in the test with MOLT-4 leukemia, with SF-295 CNS, in the test on RPMI-8226 leukemia, with M14 melanoma and in the test with NCI-H460 lung was greater than 100 µM throughout. Also, the TGI in the test on SK-OV-3 ovarian, in the test with SF-539 CNS and in the test on NCI-H226 lung was greater than 100 µM each time.
Consider `CCCN(CCC)C(=O)[C@H](CC)[C@@H]1CC[C@@H](C)[C@@H]([C@H](C)[C@@H](O)[C@@H](C)C(=O)[C@H](CC)C2O[C@]3(C=C[C@@H](O)[C@]4(CC[C@@](C)([C@H]5CC[C@](O)(CC)[C@H](C)O5)O4)O3)[C@H](C)C[C@@H]2C)O1` (stereo partly specified), for which the GI50 in the test with SF-268 CNS is 3.43 µM; with MOLT-4 leukemia, 2.39 µM; in the test on SF-295 CNS, 2.45 µM; in the test on HOP-92 NSCLC, 1.29 µM; in the test with RPMI-8226 leukemia it was 1.77 µM; with NCI-H460 lung, 2.07 µM. Besides, the values for the GI50 in the test with SK-OV-3 ovarian, with SF-539 CNS and in the test with NCI-H226 lung were 3.29 µM, 2.06 µM and 1.93 µM, respectively. Besides, the concentration for total growth inhibition (TGI) came to 22.7 µM in the test on SF-268 CNS; 6.41 µM with MOLT-4 leukemia; 8.91 µM in the test on SF-295 CNS; 4.24 µM in the test with HOP-92 NSCLC; 6.06 µM with RPMI-8226 leukemia; 4.62 µM with NCI-H460 lung. Also, the values for the TGI in the test on SK-OV-3 ovarian, in the test with SF-539 CNS and with NCI-H226 lung were 19.9 µM, 4.2 µM and 5.3 µM, respectively.
Regarding `COc1cc(C(=O)CC2(O)C(=O)Nc3c(Cl)cc(Cl)cc32)ccc1O` (stereo unspecified), the TGI with SF-268 CNS, in the test with MOLT-4 leukemia, with SF-295 CNS, with HOP-92 NSCLC, in the test with RPMI-8226 leukemia and in the test with M14 melanoma was greater than 100 µM each time. The total growth inhibition concentration (TGI) in the test on NCI-H460 lung, with SK-OV-3 ovarian and with NCI-H226 lung was greater than 100 µM throughout.
Take `COc1cc(-c2oc3c(OC)c(O)c(OC)c(O)c3c(=O)c2OC)ccc1O`: the concentration for total growth inhibition (TGI) is greater than 100 µM in the test on MOLT-4 leukemia; greater than 100 µM in the test with SF-295 CNS; greater than 100 µM in the test with RPMI-8226 leukemia; 96 µM in the test with M14 melanoma; greater than 100 µM in the test with NCI-H460 lung; 54.6 µM in the test with SK-OV-3 ovarian. The TGI with SF-539 CNS and with NCI-H226 lung was greater than 100 µM in each case.
For `N=C(N)c1ccc(-c2ccc(-c3cccs3)s2)nc1`, the GI50 in the test with SF-268 CNS was 2.74 µM; in the test with MOLT-4 leukemia it was 1.96 µM; with HOP-92 NSCLC, 0.46 µM; in the test with RPMI-8226 leukemia, 0.434 µM; with M14 melanoma it was 1.86 µM; with NCI-H460 lung, 0.0334 µM. The GI50 with SK-OV-3 ovarian was 1.56 µM; in the test on SF-539 CNS, 1.57 µM; in the test with NCI-H226 lung it was 2 µM. For the same compound, the TGI with SF-268 CNS is 10.7 µM; with MOLT-4 leukemia, 4.13 µM; in the test with HOP-92 NSCLC, 2.23 µM; with RPMI-8226 leukemia, 2.78 µM; with M14 melanoma, 3.63 µM; with NCI-H460 lung, 0.449 µM. The values for the concentration for total growth inhibition (TGI) in the test on SK-OV-3 ovarian, in the test with SF-539 CNS and with NCI-H226 lung were 5.88 µM, 3.08 µM and 15.8 µM, respectively.
Consider `NC(CCSC(F)F)C(=O)O` (stereo unspecified), for which the TGI in the test with SF-268 CNS, in the test on MOLT-4 leukemia, with SF-295 CNS, with HOP-92 NSCLC, in the test on M14 melanoma and in the test on NCI-H460 lung was greater than 100 µM throughout. In addition, the TGI in the test on SK-OV-3 ovarian, in the test on SF-539 CNS and in the test on NCI-H226 lung was greater than 100 µM in each case.
`Cc1cccc2c1C/C(=C1\CCc3c(C)cccc31)C2=O`: the TGI in the test on SF-268 CNS, in the test on MOLT-4 leukemia, in the test on SF-295 CNS, in the test on M14 melanoma, with NCI-H460 lung and with SK-OV-3 ovarian was greater than 100 µM throughout. This compound came in with a TGI with NCI-H226 lung greater than 100 µM.
